From US20240101572A1, “DIHYDROOXADIAZINONE COMPOUND AND PHARMACEUTICAL USE THEREOF” (Japan Tobacco Inc., priority 2022, published 2024) come the findings set out here.

One test concerns the target full-length human PLD1 (Homo sapiens (Human), UniProt Q13393). In words: Evaluation of human PLD1 enzyme inhibitory activity (Amplex Red / choline oxidase fluorescence). It counts as biochemical. The method in brief: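 Fluorescence read-out couples choline to Amplex Red via choline oxidase and peroxidase after a 60 min room-temperature reaction. Enzyme: FLAG-tagged full-length human PLD1 from Expi293F cells, anti-FLAG purified; substrate diheptanoyl phosphatidylcholine; HEPES pH 7.5 assay buffer with 0.01% NP-40, 0.1% BSA, 5% DMSO final.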

The next test has as its target full-length human PLD2 (Homo sapiens (Human), UniProt O14939). In words: Evaluation of human PLD2 enzyme inhibitory activity (Amplex Red / choline oxidase fluorescence). It counts as biochemical. A digest of the protocol:
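Released choline was read by Amplex Red fluorescence coupled to choline oxidase and HRP after a 60 min room-temperature reaction. Substrate was diheptanoyl phosphatidylcholine, added as a 6 mmol/L solution, and enzyme was FLAG-tagged full-length human PLD2 from Expi293F, added as a 6 nmol/L solution. Buffer was 50 mM HEPES pH 7.5 with 5% final DMSO.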

Setting [1] is: full-length human PLD1 enzyme, read-out: PLD1 IC50.
Where [2] appears, read: full-length human PLD2 enzyme, read-out: PLD2 IC50.
[3] abbreviates: column 1 of continuation tables 2-12 to 2-14, read-out: human PLD1 enzyme inhibitory activity IC50.
The mark [4] stands for this setting: column 2 of continuation tables 2-12 to 2-14, read-out: human PLD2 enzyme inhibitory activity IC50.

By IC50 is commonly meant the concentration needed to halve the response being measured.

Like-named read-outs stand apart in the source and are kept apart here.

Chain of full-length human PLD1 (Q13393 other isoform, or with tags, fused parts or gaps): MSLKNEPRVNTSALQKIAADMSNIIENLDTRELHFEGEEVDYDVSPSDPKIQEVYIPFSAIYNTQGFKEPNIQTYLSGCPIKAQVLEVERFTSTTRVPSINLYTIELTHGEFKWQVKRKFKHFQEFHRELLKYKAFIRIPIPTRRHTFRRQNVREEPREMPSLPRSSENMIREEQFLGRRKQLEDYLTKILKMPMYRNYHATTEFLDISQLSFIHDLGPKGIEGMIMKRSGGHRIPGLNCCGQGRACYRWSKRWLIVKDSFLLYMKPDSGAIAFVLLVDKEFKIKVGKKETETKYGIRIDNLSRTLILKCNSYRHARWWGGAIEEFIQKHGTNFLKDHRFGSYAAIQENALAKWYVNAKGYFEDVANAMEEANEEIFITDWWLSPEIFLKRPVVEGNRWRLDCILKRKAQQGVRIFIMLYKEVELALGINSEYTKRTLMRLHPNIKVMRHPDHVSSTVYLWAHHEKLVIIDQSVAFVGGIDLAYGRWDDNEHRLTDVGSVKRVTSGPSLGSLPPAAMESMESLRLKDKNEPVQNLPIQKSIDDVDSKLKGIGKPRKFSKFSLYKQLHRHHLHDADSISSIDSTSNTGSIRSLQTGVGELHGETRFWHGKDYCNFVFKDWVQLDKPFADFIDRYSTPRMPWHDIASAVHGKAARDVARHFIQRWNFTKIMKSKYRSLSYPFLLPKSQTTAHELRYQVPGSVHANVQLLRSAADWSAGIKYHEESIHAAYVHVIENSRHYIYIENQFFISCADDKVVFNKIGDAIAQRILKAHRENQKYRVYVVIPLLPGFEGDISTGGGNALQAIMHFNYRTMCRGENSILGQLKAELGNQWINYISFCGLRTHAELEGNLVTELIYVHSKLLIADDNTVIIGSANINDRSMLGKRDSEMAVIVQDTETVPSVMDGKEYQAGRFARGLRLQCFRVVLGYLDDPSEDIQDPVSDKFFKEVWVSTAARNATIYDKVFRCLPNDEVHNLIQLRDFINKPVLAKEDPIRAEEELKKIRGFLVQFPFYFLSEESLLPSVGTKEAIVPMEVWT
Chain of full-length human PLD2 (O14939 whole entry): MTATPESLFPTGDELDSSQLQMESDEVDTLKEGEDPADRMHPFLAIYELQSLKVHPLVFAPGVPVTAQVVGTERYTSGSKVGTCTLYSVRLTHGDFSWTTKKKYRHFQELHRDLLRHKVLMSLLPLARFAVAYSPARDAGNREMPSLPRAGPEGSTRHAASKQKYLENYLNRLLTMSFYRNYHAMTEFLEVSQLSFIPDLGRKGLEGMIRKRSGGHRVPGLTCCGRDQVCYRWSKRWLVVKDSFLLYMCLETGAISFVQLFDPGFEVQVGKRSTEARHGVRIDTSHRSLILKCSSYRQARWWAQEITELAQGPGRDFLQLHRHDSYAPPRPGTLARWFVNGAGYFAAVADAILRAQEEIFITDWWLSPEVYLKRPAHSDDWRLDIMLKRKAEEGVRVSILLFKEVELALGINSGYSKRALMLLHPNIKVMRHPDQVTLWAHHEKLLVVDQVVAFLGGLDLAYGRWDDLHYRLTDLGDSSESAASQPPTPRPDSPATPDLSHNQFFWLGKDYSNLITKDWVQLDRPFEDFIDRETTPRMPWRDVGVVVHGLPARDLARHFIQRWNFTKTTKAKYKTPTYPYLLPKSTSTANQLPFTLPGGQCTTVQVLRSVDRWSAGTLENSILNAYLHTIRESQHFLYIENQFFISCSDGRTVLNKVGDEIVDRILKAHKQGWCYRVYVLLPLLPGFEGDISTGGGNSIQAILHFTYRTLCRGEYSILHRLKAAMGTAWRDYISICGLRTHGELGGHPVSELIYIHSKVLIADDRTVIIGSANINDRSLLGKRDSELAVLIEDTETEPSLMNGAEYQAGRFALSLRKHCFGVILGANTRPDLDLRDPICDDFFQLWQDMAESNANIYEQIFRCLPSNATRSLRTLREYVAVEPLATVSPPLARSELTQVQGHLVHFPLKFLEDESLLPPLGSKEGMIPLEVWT

With `CNC(=O)C(=O)N[C@@H](C)C[C@H]1CC[C@]2(CC1)OC(=O)NN=C2c1nccn1CC1CC1` [Example 82], the IC50 at full-length human PLD1 (setting [1]) was 421 nM; at full-length human PLD2 (setting [2]), 358 nM.
The corresponding values for `Cc1cc(C(=O)N[C@@H](C)C[C@H]2CC[C@]3(CC2)OC(=O)NN=C3c2cnc(Cl)cc2N2CCC(F)(F)C2)[nH]n1` [Example 223] are 396 nM and 246 nM.
Taken in the same sequence, the figures for `CNC(=O)C(=O)N[C@@H](C)C[C@H]1CC[C@]2(CC1)OC(=O)NN=C2c1ccc(Br)cc1C` [Example 161] were 20 nM and 13 nM.
Taken in the same sequence, the figures for `CNC(=O)C(=O)N[C@@H](C)C[C@H]1CC[C@]2(CC1)OC(=O)NN=C2c1ccc(C#N)cc1Br` [Example 57, N^1—((S)-1-(cis-5-(2-bromo-4-cyanophenyl)-2-oxo-1-oxa-3,4-diazaspiro[5.5]undec-4-en-9-yl)propan-2-yl)-N^2-methyloxamide] were 16 nM and under 10 nM.
For the compound `CNC(=O)C(=O)N[C@@H](C)C[C@H]1CC[C@]2(CC1)OC(=O)NN=C2c1cc(Cl)ccc1I` [Example 2-044], the IC50 at full-length human PLD1 (setting [1]) and at full-length human PLD2 (setting [2]) was under 10 nM in each case.
Turning to `Cc1cc(C(=O)N[C@@H](C)C[C@H]2CC[C@]3(CC2)OC(=O)NN=C3c2cccc(OC(F)F)c2Br)[nH]n1` [Example 307], the half-maximal inhibitory concentration (IC50) at full-length human PLD1 (setting [1]) is 13 nM; at full-length human PLD2 (setting [2]), under 10 nM.
Taken in the same sequence, the figures for `CNC(=O)C(=O)N[C@@H](C)CN1CCC2(CC1)OC(=O)NN=C2c1cn(C)nc1I` [Example 2-043] were 33 nM and 152 nM.
In the case of `Cc1cnc(C(=O)N[C@@H](C)C[C@H]2CC[C@]3(CC2)OC(=O)NN=C3c2ccc(F)cc2Br)cn1` [Example 253], the IC50 on full-length human PLD1 (setting [1]) came to 252 nM; at full-length human PLD2 (setting [2]), 324 nM.
In the case of `C[C@@H](C[C@H]1CC[C@]2(CC1)OC(=O)NN=C2c1ccc(C#N)cc1Br)NC(=O)c1cc(Cl)no1` [Example 71], the IC50 on full-length human PLD1 (setting [1]) and on full-length human PLD2 (setting [2]) was under 10 nM each time.
`Cc1cc(F)ccc1C1=NNC(=O)O[C@]12CC[C@@H](C[C@H](C)NC(=O)N1CCc3ccccc3C1)CC2` [Example 155]: the values for the IC50 on full-length human PLD1 (setting [1]) and at full-length human PLD2 (setting [2]) were 14 nM and under 10 nM, respectively.
Consider `Cc1cccnc1C1=NNC(=O)O[C@]12CC[C@@H](C[C@H](C)NC(=O)c1cc(Cl)no1)CC2` [Example 148], for which the IC50 at full-length human PLD1 (setting [1]) amounted to 20 nM; at full-length human PLD2 (setting [2]), 18 nM.
Taken in the same sequence, the figures for `C[C@@H](C[C@H]1CC[C@]2(CC1)OC(=O)NN=C2c1ccc(F)cc1Br)NC(=O)C(F)F` [Example 211] were 102 nM and 429 nM.
Regarding `C[C@@H](C[C@H]1CC[C@]2(CC1)OC(=O)NN=C2c1cc(C(C)(C)O)ccc1Br)NC(=O)c1cnn(C)c1` [Example 2-027], the IC50 at full-length human PLD1 (setting [1]) is 13 nM; on full-length human PLD2 (setting [2]), under 10 nM.
For `C[C@@H](C[C@H]1CC[C@]2(CC1)OC(=O)NN=C2c1ccc(F)cc1Br)NC(=O)C1CC1c1ccccc1` (single isomer, unassigned) [Example 38], the IC50 was 35 nM on full-length human PLD1 (setting [1]) and 88 nM on full-length human PLD2 (setting [2]).
For the compound `CNC(=O)C(=O)N[C@@H](C)C[C@H]1CC[C@]2(CC1)OC(=O)NN=C2c1cnc(N2CC(C(F)(F)F)C2)cc1C` [Example 192], the IC50 is 21 nM at full-length human PLD1 (setting [1]) and under 10 nM on full-length human PLD2 (setting [2]).
On to `CNC(=O)C(=O)N[C@@H](C)C[C@H]1CC[C@]2(CC1)OC(=O)NN=C2c1cnc(N2CC3CCC(C2)O3)cc1Cl` [Example 246], for which the IC50 on full-length human PLD1 (setting [1]) was 15 nM; on full-length human PLD2 (setting [2]), under 10 nM.
Taken in the same sequence, the figures for `C[C@@H](C[C@H]1CC[C@]2(CC1)OC(=O)NN=C2c1ccc(S(C)(=O)=O)cc1Br)NC(=O)c1cc2cc(F)ccc2[nH]1` [Example 32] were 32 nM and under 10 nM.
Taken in the same sequence, the figures for `COc1cc(C)c(C2=NNC(=O)O[C@]23CC[C@@H](C[C@H](C)NC(=O)CC#N)CC3)cn1` [Example 263] were 2780 nM and 4500 nM.
As to `CNC(=O)C(=O)N[C@@H](C)CN1CCC2(CC1)OC(=O)NN=C2c1c(F)cccc1Br` [Example 2-018], the IC50 at full-length human PLD1 (setting [1]) is 22 nM; at full-length human PLD2 (setting [2]), under 10 nM.
The corresponding values for `Cc1cc(C(=O)N[C@@H](C)CC2CC[C@]3(C[C@@H]2F)OC(=O)NN=C3c2ccc(F)cc2Br)[nH]n1` (stereo partly drawn) [Example 286] are 14 nM and under 10 nM.
In the case of `Cc1cc(C(=O)N[C@@H](C)C[C@H]2CC[C@]3(CC2)OC(=O)NN=C3c2cc(C#N)ccc2Br)[nH]n1` [Example 272], the concentration for half-maximal inhibition (IC50) is 15 nM at full-length human PLD1 (setting [1]) and under 10 nM on full-length human PLD2 (setting [2]).
The corresponding values for `CNC(=O)C(=O)N[C@@H](C)C[C@H]1CC[C@]2(CC1)OC(=O)NN=C2c1cc(OC(F)F)ccc1C` [Example 194] are under 10 nM and under 10 nM.
In the case of `C[C@@H](C[C@H]1CC[C@]2(CC1)OC(=O)NN=C2c1cnc(C2CC2)cc1Cl)NC(=O)N1CCn2nccc2C1` [Example 277], the half-inhibitory concentration (IC50) at full-length human PLD1 (setting [1]) is 17 nM; at full-length human PLD2 (setting [2]), under 10 nM.
Taken in the same sequence, the figures for `Cc1cc(C(=O)N[C@@H](C)CN2CCC3(CC2)OC(=O)NN=C3c2cc(Br)c(F)cc2Cl)[nH]n1` [Example 2-016] were 19 nM and under 10 nM.
Turning to `CNC(=O)C(=O)N[C@@H](C)C[C@H]1CC[C@]2(CC1)OC(=O)NN=C2c1ccccc1OC(F)(F)F` [Example 105], the results for the 50% inhibitory concentration (IC50) at full-length human PLD1 (setting [1]) and on full-length human PLD2 (setting [2]) were 27 nM and 41 nM, respectively.
On to `CNC(=O)C(=O)NCC[C@H]1CC[C@]2(CC1)OC(=O)NN=C2c1ccc(F)cc1Br` [Example 47], for which the IC50 is 119 nM on full-length human PLD1 (setting [1]) and under 10 nM at full-length human PLD2 (setting [2]).
The corresponding values for `C[C@@H](C[C@H]1CC[C@]2(CC1)OC(=O)NN=C2c1cc(OC(F)(F)F)ccc1Br)NC(=O)C(=O)NC1CC1` [Example 295] are under 10 nM and under 10 nM.
The corresponding values for `CNC(=O)C(=O)N[C@@H](C)C[C@]1(F)CC[C@@]2(CC1)OC(=O)NN=C2c1cc(C#N)ccc1Br` [Example 310] are 14 nM and under 10 nM.
Taken in the same sequence, the figures for `C[C@@H](C[C@H]1CC[C@]2(CC1)OC(=O)NN=C2c1ccc(F)cc1Br)NC(=O)CC#N` [Example 41] were 229 nM and 500 nM.
In the case of `COc1cc(C)c(C2=NNC(=O)O[C@]23CC[C@@H](C[C@H](C)NC(=O)N2CCc4nocc4C2)CC3)cn1` [Example 260], the IC50 at full-length human PLD1 (setting [1]) is 31 nM; on full-length human PLD2 (setting [2]), under 10 nM.
On to `[2H]C([2H])([2H])NC(=O)C(=O)N[C@@H](C)CN1CCC2(CC1)OC(=O)NN=C2c1cc(C#N)c(F)cc1Br` [Example 2-004], for which the figures for the IC50 at full-length human PLD1 (setting [1]) and on full-length human PLD2 (setting [2]) were 68 nM and under 10 nM, respectively.
The corresponding values for `CSc1ccccc1C1=NNC(=O)O[C@]12CC[C@@H](C[C@H](C)NC(=O)c1cc(Cl)no1)CC2` [Example 79] are under 10 nM and under 10 nM.
Taken in the same sequence, the figures for `Cc1cc(C(=O)N[C@@H](C)[C@H](C)N2CCC3(CC2)OC(=O)NN=C3c2ccc(F)cc2Br)[nH]n1` [Example 288] were 26 nM and under 10 nM.
The corresponding values for `C[C@@H](CN1CCC2(CC1)OC(=O)NN=C2c1cc(C#N)ccc1Br)NC(=O)c1ccccc1C(F)(F)F` [Example 2-029] are 1510 nM and 8410 nM.
Regarding `C[C@@H](C[C@H]1CC[C@]2(CC1)OC(=O)NN=C2c1ccc(OC(F)(F)F)cc1Br)NC(=O)c1cc2ccccc2o1` [Example 87], the IC50 was 39 nM at full-length human PLD1 (setting [1]) and under 10 nM on full-length human PLD2 (setting [2]).
Taken in the same sequence, the figures for `C[C@@H](C[C@H]1CC[C@]2(CC1)OC(=O)NN=C2c1cc(OCC(F)(F)F)ccc1Br)NC(=O)C(=O)NC1CC1` [Example 297] were 13 nM and under 10 nM.
Taken in the same sequence, the figures for `Cc1cc(C(=O)NC[C@H](C)N2CCC3(CC2)OC(=O)NN=C3c2ccc(C#N)cc2Br)[nH]n1` [Example 335] were 126 nM and under 10 nM.
The corresponding values for `CNC(=O)C(=O)N[C@@H](C)CN1CCC2(CC1)OC(=O)NN=C2c1cc(Br)c(F)cc1Cl` [Example 2-015] are 26 nM and 12 nM.
Take `Cc1cc(C(=O)NC[C@@H](C)N2CCC3(CC2)OC(=O)NN=C3c2ccc(C#N)cc2Br)[nH]n1` [Example 332]: the half-inhibitory concentration (IC50) is 2600 nM at full-length human PLD1 (setting [1]) and 15 nM on full-length human PLD2 (setting [2]).
As to `[2H]C([2H])([2H])NC(=O)C(=O)N[C@@H](C)C[C@]1(OC)CC[C@@]2(CC1)OC(=O)NN=C2c1cccc(C(F)(F)F)c1Br` [Example 2-129], the IC50 at full-length human PLD1 (setting [3]) is 25 nM; on full-length human PLD2 (setting [4]) it was under 10 nM.
Take `CNC(=O)C(=O)N[C@@H](C)CN1CCC2(CC1)OC(=O)NN=C2c1ncccc1Br` [Example 2-028]: the IC50 on full-length human PLD1 (setting [1]) was 45 nM; on full-length human PLD2 (setting [2]), 32 nM.
For the compound `CNC(=O)C(=O)NC(C)C[C@H]1CC[C@@]2(CC1)OC(=O)NN=C2c1cc(C#N)ccc1Br` (mixture of isomers) [Example 2-148], the IC50 worked out at 140 nM on full-length human PLD1 (setting [3]) and 46 nM at full-length human PLD2 (setting [4]).
For `CNC(=O)C(=O)N[C@@H](C)C[C@H]1CC[C@]2(CC1)OC(=O)NN=C2c1ccc(S(=O)(=O)C(C)C)cc1Br` [Example 66], the half-maximal inhibitory concentration (IC50) is 16 nM at full-length human PLD1 (setting [1]) and under 10 nM at full-length human PLD2 (setting [2]).
For the compound `CNC(=O)C(=O)N[C@@H](C)C[C@H]1CC[C@]2(CC1)OC(=O)NN=C2c1cc(C(=O)NC)ccc1Br` [Example 2-035], the IC50 was 21 nM at full-length human PLD1 (setting [1]) and under 10 nM on full-length human PLD2 (setting [2]).
For the compound `C[C@@H](CN1CCC2(CC1)OC(=O)NN=C2c1cc(C#N)ccc1Br)NC(=O)c1cncn1C` [Example 2-053], the IC50 at full-length human PLD1 (setting [1]) was 676 nM; on full-length human PLD2 (setting [2]), 245 nM.
